Reference: patent US10233179B2, “Thiazoles and uses thereof” (AbbVie Inc., priority 2013, dated 2019)

How the values were obtained:
HEp-2 cells = assay: Cytotoxicity assay (MTT) in parallel with the antiviral assay; format: cell-based
Protocol: HEp-2 cells and RSV (Group A, Long Strain) were obtained from the American Type Culture Collection (Manassas, Va.). Cytotoxicity of the compounds was determined in experiments done in parallel with the antiviral assays. To do this, 100 μL of assay medium was added to the wells of HEp-2 cells pretreated with 100 μL serially diluted compounds as described above. After 4 days of incubation, the viability of the cells was determined by the MTT assay in the same way as detailed in the “Antiviral Assay” method. Results were expressed as 50% toxicity dose (TD50) values. Compounds were tested to determine both their antiviral and toxicity to determine their therapeutic window. Determination of the EC50 and TD50 of these active compounds were repeated one additional time to confirm the window.

[1] = tested on: RSV (Group A, Long Strain); assay: Antiviral cytopathic effect (CPE) protection assay, MTT readout; format: cell-based; conditions: human respiratory syncytial virus, 96 h; HEp-2 cells, 0.2 MOI RSV, 4 days incubation, protection from CPE by MTT
Protocol: HEp-2 cells and RSV (Group A, Long Strain) were obtained from the American Type Culture Collection (Manassas, Va.).
A cytopathic effect (CPE) protection assay was performed to determine the ability of a compound to protect the cells from viral infection and thus the CPE induced by viral infection. 96-Well plates were first seeded with 3×10^3 HEp-2 cells per well in Dulbecco's modified Eagle's medium (DMEM) containing 10% fetal bovine serum (FBS). One day after the cells were seeded, they were preincubated with serial dilutions of compounds prepared in 100 μL assay medium (DMEM mixed with F12 medium at a 1:1 ratio, supplemented with 2% FBS and 1 mM sodium pyruvate) for 1 hour at 37° C. 100 μL of assay medium containing 0.2 multiplicity of infection (MOI) of RSV was then added to each well of cells. In addition to wells containing infected cells incubated with compounds, each plate also contained replicates of two kinds of controls: (1) Virus control contained cells infected with 0.2 MOI of RSV in assay medium, (2) Uninfected cell control contained cells incubated with assay medium only. After 4 days of incubation at 37° C., the viability of cells was assessed using MTT (Thiazolyl blue tetrazolium bromide, Sigma). A stock solution of MTT, at a concentration of 4 mg/mL in phosphate-buffered saline, was added to all wells at 25 μL per well. Plates were further incubated for 4 hours, and each well was then treated with 50 μL of a solution containing 20% sodium dodecyl sulfate (SDS) and 0.02 N HCl. After an overnight incubation, the plates were measured on a BioTek® microtiter plate reader at wavelengths of 570 nm and 650 nm. The MTT detection is based on the fact that viable (uninfected) cells can reduce the tetrazolium salts into colored formazan products, which can then be quantitated by spectrometry. Based on the spectrometric absorbance of each sample, the percent of protection from CPE, which is an indicator of protection from viral infection, can be calculated for each compound and the 50% effective concentrations (EC50) can be calculated using a nonlinear regression curve fitting equation provided by the GraphPad Prism® 4 software.
Compounds were tested to determine both their antiviral and toxicity to determine their therapeutic window. Determination of the EC50 and TD50 of these active compounds were repeated one additional time to confirm the window.

[2] = uninfected HEp-2 cells, 4 days incubation, MTT viability

Row | SMILES | EC50 [1] [nM] | MTT TD50 (HEp-2 cells; [2]) [µM] | MTT TD50 (HEp-2 cells; human, 4 days) [µM]
1 | N#Cc1ccc(CN(Cc2cccn2-c2nccs2)Cc2cccn2-c2nccs2)cc1 [Example 45, 4-[(bis{[1-(1,3-thiazol-2-yl)-1H-pyrrol-2-yl]methyl}amino)methyl]benzonitrile] | 960 | >32 | –
2 | C[C@H](c1ccccc1Cl)N(Cc1cccn1-c1nncs1)Cc1cccn1-c1nncs1 [Example 19, (1R)-1-(2-chlorophenyl)-N,N-bis{[1-(1,3,4-thiadiazol-2-yl)-1H-pyrrol-2-yl]methyl}ethanamine] | 2800 | >32 | –
3 | CC(Cc1cccs1)N(Cc1cccn1-c1nncs1)Cc1cccn1-c1nncs1 (centres unmarked) [Example 25, N,N-bis{[1-(1,3,4-thiadiazol-2-yl)-1H-pyrrol-2-yl]methyl}-1-(thiophen-2-yl)propan-2-amine] | 7500 | – | 55
4 | CC(C)CN(Cc1cccn1-c1nccs1)Cc1cccn1-c1nccs1 [Example 39, 2-methyl-N,N-bis{[1-(1,3-thiazol-2-yl)-1H-pyrrol-2-yl]methyl}propan-1-amine] | 3400 | 8.3 | –
5 | FC1(F)CCC(CN(Cc2cccn2-c2nncs2)Cc2cccn2-c2nncs2)CC1 [Example 23, 1-(4,4-difluorocyclohexyl)-N,N-bis{[1-(1,3,4-thiadiazol-2-yl)-1H-pyrrol-2-yl]methyl}methanamine] | 2400 | >100 | –
6 | Clc1ccc(CN(Cc2cccn2-c2nccs2)Cc2cccn2-c2nccs2)c(Cl)c1 [Example 29, 1-(2,4-dichlorophenyl)-N,N-bis{[1-(1,3-thiazol-2-yl)-1H-pyrrol-2-yl]methyl}methanamine] | 320 | >32 | –
7 | c1cncc(C2(CCN(Cc3cccn3-c3nncs3)Cc3cccn3-c3nncs3)CC2)c1 [Example 24, 2-[1-(pyridin-3-yl)cyclopropyl]-N,N-bis{[1-(1,3,4-thiadiazol-2-yl)-1H-pyrrol-2-yl]methyl}ethanamine] | 2900 | >100 | –
8 | FC1(F)CCC(CN(Cc2cccn2-c2nccs2)Cc2cccn2-c2nccs2)CC1 [Example 57, 1-(4,4-difluorocyclohexyl)-N,N-bis{[1-(1,3-thiazol-2-yl)-1H-pyrrol-2-yl]methyl}methanamine] | 310 | 20 | –
9 | Cc1cccc(C)c1-n1ccc(CN(Cc2cccn2-c2nccs2)C(C)c2cnn(-c3cccc(F)c3)c2C)c1 (centres unmarked) [Example 6, N-{[1-(2,6-dimethylphenyl)-1H-pyrrol-3-yl]methyl}-1-[1-(3-fluorophenyl)-5-methyl-1H-pyrazol-4-yl]-N-{[1-(1,3-thiazol-2-yl)-1H-pyrrol-2-yl]methyl}ethanamine] | > 570 | 0.57 | –
10 | CC(Cc1cccs1)N(Cc1cccn1-c1nccs1)Cc1cccn1-c1nccs1 (centres unmarked) [Example 64, N,N-bis{[1-(1,3-thiazol-2-yl)-1H-pyrrol-2-yl]methyl}-1-(thiophen-2-yl)propan-2-amine] | 330 | – | 5.6
11 | c1cncc(C2(CN(Cc3cccn3-c3nncs3)Cc3cccn3-c3nncs3)CC2)c1 [Example 26, 1-[1-(pyridin-3-yl)cyclopropyl]-N,N-bis{[1-(1,3,4-thiadiazol-2-yl)-1H-pyrrol-2-yl]methyl}methanamine] | 1100 | >100 | –
12 | N#Cc1cc(CN(Cc2cccn2-c2nncs2)Cc2cccn2-c2nncs2)cs1 [Example 28, 4-[(bis{[1-(1,3,4-thiadiazol-2-yl)-1H-pyrrol-2-yl]methyl}amino)methyl]thiophene-2-carbonitrile] | 760 | >100 | –
13 | Cn1nccc1N(Cc1cccn1-c1nncs1)Cc1cccn1-c1nncs1 [Example 9, 1-methyl-N,N-bis{[1-(1,3,4-thiadiazol-2-yl)-1H-pyrrol-2-yl]methyl}-1H-pyrazol-5-amine] | 4900 | >32 | –
14 | Clc1cnc(CN(Cc2cccn2-c2nncs2)Cc2cccn2-c2nncs2)c(Cl)c1 [Example 14, 1-(3,5-dichloropyridin-2-yl)-N,N-bis{[1-(1,3,4-thiadiazol-2-yl)-1H-pyrrol-2-yl]methyl}methanamine] | 4800 | 90 | –
15 | FC(F)(F)c1ccc(CN(Cc2cccn2-c2nccs2)Cc2cccn2-c2nccs2)cc1 [Example 34, 1-[1-(1,3-thiazol-2-yl)-1H-pyrrol-2-yl]-N-{[1-(1,3-thiazol-2-yl)-1H-pyrrol-2-yl]methyl}-N-[4-(trifluoromethyl)benzyl]methanamine] | 3400 | 34 | –
16 | c1cc(CN(Cc2cccn2-c2nccs2)CC2C[C@H]3CC[C@@H]2C3)n(-c2nccs2)c1 (stereo partly drawn) [Example 32, 1-[(1R,4S)-bicyclo[2.2.1]hept-2-yl]-N,N-bis{[1-(1,3-thiazol-2-yl)-1H-pyrrol-2-yl]methyl}methanamine] | 410 | 4.1 | –

Further lines, with some results ahead:

Row | EC50 [1] [nM] | SMILES | MTT TD50 (HEp-2 cells; [2]) [µM] | MTT TD50 (HEp-2 cells; human, 4 days) [µM]
17 | 33 | Cc1ccccc1CN(Cc1cccn1-c1nccs1)Cc1cccn1-c1nccs1 [Example 37, 1-(2-methylphenyl)-N,N-bis{[1-(1,3-thiazol-2-yl)-1H-pyrrol-2-yl]methyl}methanamine] | 7.1 | –
18 | 120 | Fc1ccccc1CN(Cc1cccn1-c1nncs1)Cc1cccn1-c1nncs1 [Example 15, 1-(2-fluorophenyl)-N,N-bis{[1-(1,3,4-thiadiazol-2-yl)-1H-pyrrol-2-yl]methyl}methanamine] | 67 | –
19 | 200 | c1cc(CN(CCC2(c3ccncc3)CC2)Cc2cccn2-c2nccs2)n(-c2nccs2)c1 [Example 66, 2-[1-(pyridin-4-yl)cyclopropyl]-N,N-bis{[1-(1,3-thiazol-2-yl)-1H-pyrrol-2-yl]methyl}ethanamine] | 14 | –
20 | 260 | c1coc(CN(Cc2cccn2-c2nccs2)Cc2cccn2-c2nccs2)c1 [Example 63, 1-(furan-2-yl)-N,N-bis{[1-(1,3-thiazol-2-yl)-1H-pyrrol-2-yl]methyl}methanamine] | 20 | –
21 | 110 | c1ccc(CN(Cc2cccn2-c2nccs2)Cc2cccn2-c2nccs2)cc1 [Example 31, 1-phenyl-N,N-bis{[1-(1,3-thiazol-2-yl)-1H-pyrrol-2-yl]methyl}methanamine] | 5.4 | –
22 | 100 | c1cc(CN(Cc2cccn2-c2nccs2)C2CCCCC2)n(-c2nccs2)c1 [Example 52, N,N-bis{[1-(1,3-thiazol-2-yl)-1H-pyrrol-2-yl]methyl}cyclohexanamine] | 7.2 | –
23 | 310 | Clc1cnc(CN(Cc2cccn2-c2nccs2)Cc2cccn2-c2nccs2)c(Cl)c1 [Example 38, 1-(3,5-dichloropyridin-2-yl)-N,N-bis{[1-(1,3-thiazol-2-yl)-1H-pyrrol-2-yl]methyl}methanamine] | 11 | –
24 | 120 | Cc1c(C(C)N(Cc2cccn2-c2nccs2)Cc2cccn2-c2nccs2)cnn1-c1cccc(F)c1 (racemic) [Example 1, 1-[1-(3-fluorophenyl)-5-methyl-1H-pyrazol-4-yl]-N,N-bis{[1-(1,3-thiazol-2-yl)-1H-pyrrol-2-yl]methyl}ethanamine] | 11 | –
25 | 120 | FC(F)(F)c1cccc(CN(Cc2cccn2-c2nccs2)Cc2cccn2-c2nccs2)c1 [Example 44, 1-[1-(1,3-thiazol-2-yl)-1H-pyrrol-2-yl]-N-{[1-(1,3-thiazol-2-yl)-1H-pyrrol-2-yl]methyl}-N-[3-(trifluoromethyl)benzyl]methanamine] | 38 | –
